These results are taken from ChEMBL document CHEMBL4387728, “Synthetic glycopeptides reveal specific binding pattern and conformational change at O-mannosylated position of α-dystroglycan by POMGnT1 catalyzed GlcNAc modification” (Bioorg Med Chem, 2019).

One assay concerns Maackia amurensis. Briefly: Binding affinity to biotin-labeled Maackia amurensis agglutinin in pH 7.4 Tris buffer by fluorescence microarray method.
In a further assay the test system is Datura stramonium. Nature of the assay: Binding affinity to biotin-labeled Datura stramonium agglutinin in pH 7.4 Tris buffer by fluorescence microarray method.
The test system of another assay is Arachis hypogaea. Nature of the assay: Binding affinity to biotin-labeled Arachis hypogaea agglutinin in pH 7.4 Tris buffer by fluorescence microarray method.
The test system of assay [1] is Sambucus racemosa subsp. sieboldiana. Briefly: Binding affinity to biotin-labeled Sambucus sieboldiana agglutinin in pH 7.4 Tris buffer by fluorescence microarray method.
The subject of another assay is Erythrina crista-galli. Nature of the assay: Binding affinity to biotin-labeled Erythrina crista-galli agglutinin in pH 7.4 Tris buffer by fluorescence microarray method.
In another assay the test system is Triticum aestivum. Briefly: Binding affinity to biotin-labeled Wheat germ agglutinin in pH 7.4 Tris buffer by fluorescence microarray method.
The subject of a further assay is Canavalia ensiformis. Briefly: Binding affinity to biotin-labeled Canavalia ensiformis agglutinin in pH 7.4 Tris buffer by fluorescence microarray method.
For assay [2], the target named is Laminin subunit alpha-1 (Homo sapiens) (UniProt P25391). Nature of the assay: Binding affinity to biotin-labeled human recombinant laminin-1 at 10 ug/ml in pH 7.4 Tris buffer by fluorescence microarray method.
Laminin subunit alpha-1 (Homo sapiens), sequence (P25391 whole entry): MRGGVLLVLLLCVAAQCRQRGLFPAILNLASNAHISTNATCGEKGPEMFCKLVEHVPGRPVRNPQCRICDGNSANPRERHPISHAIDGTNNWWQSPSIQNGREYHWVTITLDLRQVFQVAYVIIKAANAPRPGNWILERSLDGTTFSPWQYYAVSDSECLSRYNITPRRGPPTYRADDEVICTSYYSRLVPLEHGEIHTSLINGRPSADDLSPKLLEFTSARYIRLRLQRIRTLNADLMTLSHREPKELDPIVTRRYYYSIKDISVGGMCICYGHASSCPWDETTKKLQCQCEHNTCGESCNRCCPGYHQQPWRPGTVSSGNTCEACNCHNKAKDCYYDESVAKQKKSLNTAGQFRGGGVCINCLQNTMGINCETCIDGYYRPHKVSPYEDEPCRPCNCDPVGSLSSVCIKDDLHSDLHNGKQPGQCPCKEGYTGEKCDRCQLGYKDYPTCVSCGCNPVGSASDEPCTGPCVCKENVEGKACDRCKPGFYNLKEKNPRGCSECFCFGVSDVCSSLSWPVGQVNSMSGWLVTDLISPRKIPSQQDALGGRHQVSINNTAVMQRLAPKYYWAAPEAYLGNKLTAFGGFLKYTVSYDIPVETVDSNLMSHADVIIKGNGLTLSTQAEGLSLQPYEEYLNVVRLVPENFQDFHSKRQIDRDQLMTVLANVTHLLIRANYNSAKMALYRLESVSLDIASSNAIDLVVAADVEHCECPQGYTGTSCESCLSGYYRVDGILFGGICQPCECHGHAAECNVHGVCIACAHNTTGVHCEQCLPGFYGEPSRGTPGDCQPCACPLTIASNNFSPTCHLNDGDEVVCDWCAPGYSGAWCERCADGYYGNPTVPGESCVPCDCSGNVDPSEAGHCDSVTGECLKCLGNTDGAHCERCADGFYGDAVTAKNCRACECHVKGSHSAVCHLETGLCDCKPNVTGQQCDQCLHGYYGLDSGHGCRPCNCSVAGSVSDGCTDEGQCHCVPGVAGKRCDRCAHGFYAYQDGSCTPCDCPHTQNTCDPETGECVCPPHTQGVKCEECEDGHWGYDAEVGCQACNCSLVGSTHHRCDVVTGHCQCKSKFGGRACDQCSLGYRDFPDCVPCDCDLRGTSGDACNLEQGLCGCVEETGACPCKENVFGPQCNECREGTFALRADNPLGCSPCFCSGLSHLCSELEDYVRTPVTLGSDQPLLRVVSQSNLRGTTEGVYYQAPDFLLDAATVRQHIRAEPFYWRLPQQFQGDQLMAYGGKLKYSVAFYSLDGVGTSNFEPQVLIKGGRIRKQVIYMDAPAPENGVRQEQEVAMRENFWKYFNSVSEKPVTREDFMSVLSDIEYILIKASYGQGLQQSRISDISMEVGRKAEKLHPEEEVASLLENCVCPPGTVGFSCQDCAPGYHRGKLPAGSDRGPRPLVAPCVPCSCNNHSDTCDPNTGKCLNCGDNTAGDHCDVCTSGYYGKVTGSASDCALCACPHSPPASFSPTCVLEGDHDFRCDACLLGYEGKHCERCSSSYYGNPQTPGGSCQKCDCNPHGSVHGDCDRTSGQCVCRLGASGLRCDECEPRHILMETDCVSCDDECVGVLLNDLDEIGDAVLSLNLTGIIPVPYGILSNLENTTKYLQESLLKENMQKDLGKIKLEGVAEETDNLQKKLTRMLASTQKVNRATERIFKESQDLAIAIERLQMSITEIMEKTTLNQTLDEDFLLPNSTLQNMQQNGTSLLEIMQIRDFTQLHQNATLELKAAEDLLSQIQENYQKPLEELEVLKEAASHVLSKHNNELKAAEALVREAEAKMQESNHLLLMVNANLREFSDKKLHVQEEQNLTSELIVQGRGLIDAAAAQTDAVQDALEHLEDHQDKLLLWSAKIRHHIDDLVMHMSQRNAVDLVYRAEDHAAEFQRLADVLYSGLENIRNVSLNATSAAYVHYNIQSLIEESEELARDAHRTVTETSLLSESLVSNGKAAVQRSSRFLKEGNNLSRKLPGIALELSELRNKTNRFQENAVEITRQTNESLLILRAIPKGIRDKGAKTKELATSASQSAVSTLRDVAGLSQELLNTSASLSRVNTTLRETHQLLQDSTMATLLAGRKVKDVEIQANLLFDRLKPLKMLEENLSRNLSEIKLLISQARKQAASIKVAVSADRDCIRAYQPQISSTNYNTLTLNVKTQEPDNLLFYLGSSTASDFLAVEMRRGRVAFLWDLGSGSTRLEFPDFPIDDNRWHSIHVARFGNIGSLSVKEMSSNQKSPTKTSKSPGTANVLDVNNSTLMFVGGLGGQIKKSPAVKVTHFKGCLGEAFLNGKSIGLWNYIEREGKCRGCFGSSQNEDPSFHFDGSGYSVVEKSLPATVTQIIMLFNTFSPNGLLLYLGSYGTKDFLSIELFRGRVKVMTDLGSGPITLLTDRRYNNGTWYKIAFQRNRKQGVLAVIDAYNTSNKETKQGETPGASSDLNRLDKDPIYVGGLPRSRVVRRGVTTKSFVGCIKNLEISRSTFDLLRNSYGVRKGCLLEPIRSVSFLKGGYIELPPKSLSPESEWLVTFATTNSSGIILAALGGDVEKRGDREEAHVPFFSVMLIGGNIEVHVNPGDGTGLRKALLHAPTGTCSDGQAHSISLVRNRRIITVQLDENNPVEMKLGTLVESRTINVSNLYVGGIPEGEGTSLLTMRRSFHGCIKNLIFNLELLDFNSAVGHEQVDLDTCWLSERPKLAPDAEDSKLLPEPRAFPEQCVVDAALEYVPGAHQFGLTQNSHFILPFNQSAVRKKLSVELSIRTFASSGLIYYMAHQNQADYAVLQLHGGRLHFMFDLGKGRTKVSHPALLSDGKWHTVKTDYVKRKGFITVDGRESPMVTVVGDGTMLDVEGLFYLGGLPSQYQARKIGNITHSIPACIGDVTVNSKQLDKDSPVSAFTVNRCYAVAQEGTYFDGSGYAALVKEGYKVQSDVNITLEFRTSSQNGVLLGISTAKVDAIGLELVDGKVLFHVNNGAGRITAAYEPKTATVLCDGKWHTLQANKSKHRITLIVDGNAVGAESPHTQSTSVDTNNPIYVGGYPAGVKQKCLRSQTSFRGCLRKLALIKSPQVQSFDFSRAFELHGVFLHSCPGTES
Assay [3] is filed under the species Homo sapiens. Nature of the assay: Binding affinity to biotin-labeled human recombinant laminin-2 at 10 ug/ml in pH 7.4 Tris buffer by fluorescence microarray method.
Assay [4] addresses Lactotransferrin (Homo sapiens) (UniProt P02788). Nature of the assay: Binding affinity to biotin-labeled lactoferrin (unknown origin) at 10 ug/ml in pH 7.4 Tris buffer by fluorescence microarray method.
Assay [5] has as its target Laminin subunit alpha-1 (Homo sapiens) (UniProt P25391). Briefly: Binding affinity to biotin-labeled human recombinant laminin-1 at 10 ug/ml in pH 5.6 MES buffer by fluorescence microarray method.
Assay [6] concerns the target Lactotransferrin (Homo sapiens) (UniProt P02788). Briefly: Binding affinity to biotin-labeled lactoferrin (unknown origin) at 10 ug/ml in pH 5.6 MES buffer by fluorescence microarray method.
For assay [7], the species on record is Homo sapiens. Nature of the assay: Binding affinity to biotin-labeled human recombinant laminin-2 at 10 ug/ml in 5.6 MES buffer by fluorescence microarray method.
The nature of assay [8]: Binding affinity to biotin-labeled Agaricus bisporus agglutinin in pH 7.4 Tris buffer by fluorescence microarray method.

Active and inactive are the calls of the source. The calls are words filed in the database; no cut-off is given here. Square brackets hold non-standard residues; d marks the D form. Peptide text beside a SMILES is read from it. * marks the point of attachment. X2 = CC(=O)N[C@H]1[C@H](O[C@H]2[C@@H](O)[C@H](O)[C@@H](CO)O[C@@H]2*)O[C@H](CO)[C@@H](O[C@@H]2O[C@H](CO)[C@H](O)[C@H](O)[C@H]2O)[C@@H]1O; Orn(CH(NH2)2) = NC(N)NCCC[C@H](N)C(=O)O; Hexanoyl(5-oxo) = CC(=O)CCCC(=O)*

Lactotransferrin (Homo sapiens), sequence (P02788 whole entry): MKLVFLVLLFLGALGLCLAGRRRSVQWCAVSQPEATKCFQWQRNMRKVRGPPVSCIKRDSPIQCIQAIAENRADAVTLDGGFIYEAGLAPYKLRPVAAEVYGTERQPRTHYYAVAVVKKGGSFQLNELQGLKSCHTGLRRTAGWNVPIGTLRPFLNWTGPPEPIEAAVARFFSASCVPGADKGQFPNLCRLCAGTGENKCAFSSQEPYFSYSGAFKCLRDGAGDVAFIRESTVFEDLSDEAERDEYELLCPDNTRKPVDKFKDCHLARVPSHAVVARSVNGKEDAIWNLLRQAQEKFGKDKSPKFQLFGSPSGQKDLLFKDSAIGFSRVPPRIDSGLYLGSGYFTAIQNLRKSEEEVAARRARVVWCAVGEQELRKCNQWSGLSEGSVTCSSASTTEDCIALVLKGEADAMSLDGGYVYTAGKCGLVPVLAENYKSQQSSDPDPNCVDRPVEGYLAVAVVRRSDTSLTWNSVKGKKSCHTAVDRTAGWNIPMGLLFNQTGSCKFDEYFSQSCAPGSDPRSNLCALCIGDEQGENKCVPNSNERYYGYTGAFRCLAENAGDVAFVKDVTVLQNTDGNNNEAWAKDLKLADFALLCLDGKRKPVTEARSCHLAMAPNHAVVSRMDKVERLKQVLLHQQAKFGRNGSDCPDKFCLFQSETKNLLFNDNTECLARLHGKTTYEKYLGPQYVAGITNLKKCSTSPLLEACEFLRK

For the compound `CC[C@H](C)[C@H](NC(=O)[C@H](C)NC(=O)CNC(=O)[C@H](CCCNC(=N)N)NC(=O)[C@@H](NC(=O)CCCC(C)=O)[C@@H](C)O)C(=O)N[C@H](C(=O)N[C@@H](CCC(N)=O)C(=O)N[C@H](C(=O)N1CCC[C@H]1C(=O)N[C@H](C(=O)N[C@@H](CC(C)C)C(=O)NCC(=O)N1CCC[C@H]1C(=O)N[C@H](C(=O)N[C@@H](CCC(N)=O)C(=O)N1CCC[C@H]1C(=O)N[C@H](C(=O)N[C@@H](CCCNC(N)N)C(=O)N[C@H](C(N)=O)C(C)C)[C@@H](C)O[C@H]1O[C@H](CO)[C@@H](O)[C@H](O)[C@@H]1O[C@@H]1O[C@H](CO)[C@@H](O[C@@H]2O[C@H](CO)[C@H](O)[C@H](O)[C@H]2O)[C@H](O)[C@H]1NC(C)=O)[C@@H](C)CC)[C@@H](C)O)[C@@H](C)O)[C@@H](C)CC` ({Hexanoyl(5-oxo)}-TRGAIIQTPTLGPIQPT(X2)[Orn(CH(NH2)2)]V-NH2), the outcome (in the assay with Maackia amurensis; with Datura stramonium; in the assay listed under Homo sapiens [3]; in assay [4]) was inactive. The outcome (in the assay with Arachis hypogaea; in assay [1]; with Erythrina crista-galli; in the assay with Triticum aestivum; in the assay on Canavalia ensiformis; in assay [2]) was Active. In addition, the result (in [5]; in assay [6]; in the assay filed under Homo sapiens [7]; in [8]) was Active.

For `CC[C@H](C)[C@H](NC(=O)[C@H](C)NC(=O)CNC(=O)[C@H](CCCNC(=N)N)NC(=O)[C@@H](NC(=O)CCCC(C)=O)[C@@H](C)O)C(=O)N[C@H](C(=O)N[C@@H](CCC(N)=O)C(=O)N[C@H](C(=O)N1CCC[C@H]1C(=O)N[C@H](C(=O)N[C@@H](CC(C)C)C(=O)NCC(=O)N1CCC[C@H]1C(=O)N[C@H](C(=O)N[C@@H](CCC(N)=O)C(=O)N1CCC[C@H]1C(=O)N[C@H](C(=O)N[C@@H](CCCNC(=N)N)C(=O)N[C@H](C(N)=O)C(C)C)[C@@H](C)O)[C@@H](C)CC)[C@@H](C)O)[C@@H](C)O)[C@@H](C)CC` ({Hexanoyl(5-oxo)}-TRGAIIQTPTLGPIQPTRV-NH2), the outcome (with Maackia amurensis; with Datura stramonium; in the assay filed under Homo sapiens [3]; in assay [4]) was inactive. Besides, the result (in the assay on Arachis hypogaea; in assay [1]; in the assay with Erythrina crista-galli; in the assay on Triticum aestivum; with Canavalia ensiformis; in [2]) was Active. Also, the outcome (in [5]; in assay [6]; in the assay listed under Homo sapiens [7]; in assay [8]) was Active.
